In patent publication US10858335B2 (Rigel Pharmaceuticals, Inc., priority 2014, dated 2020):

The molecules below were run on GDF8 signaling (p-SMAD-3 (Ser423/425)) (assay: AlphaScreen SureFire SMAD3 (p-Ser423/425) assay, GDF8-stimulated cells (GDF pSMAD)). Settings: GDF8-stimulated pSMAD3, MPC11; tested as the salt form given; read-out: GDF pSMAD (MPC11) (μM), inhibition of GDF8 signaling.
Assay type: cell-based

Question: How did the IC50 turn out when `CN(C)CCNc1ncnc2ccc(-c3cccnc3-c3cc(Cl)ccc3F)cc12` [compound 1093] was run?
Answer: 0.2 µM

Same assay, conditions: Mus musculus, MPC-11, GDF8-stimulated pSMAD3, MPC11; tested as the salt form given; read-out: GDF pSMAD (MPC11) (μM), inhibition of GDF8 signaling

Question: Which IC50 does the source give for `Fc1ccc(Cl)cc1-c1ncccc1-c1ccc2ncnc(Nc3cn[nH]c3)c2c1` [compound 1033, 6-(2-(5-chloro-2-fluorophenyl)pyridin-3-yl)-N-(1H-pyrazol-4-yl)quinazolin-4-amine] here?
Answer: 1.58 µM

Question: For `Cc1c(F)cc(C(F)F)cc1-c1ncccc1-c1ccc2ncnc(N)c2c1` [compound 1034, 6-(2-(5-(difluoromethyl)-3-fluoro-2-methylphenyl)pyridin-3-yl)quinazolin-4-amine], which IC50 is on record?
Answer: 0.342 µM

Question: Which IC50 does the source give for `Nc1ncnc2ccc(-c3cccnc3-c3cc(Cl)cc(F)c3F)cc12` [compound 1035, 6-(2-(5-chloro-2,3-difluorophenyl)pyridin-3-yl)quinazolin-4-amine] here?
Answer: 0.161 µM

Question: How did the IC50 turn out when `Nc1ncnc2ccc(-c3cccnc3-c3cc(Cl)ccc3F)nc12` [compound 1039] was run?
Answer: 0.0438 µM

Question: For `CN1CCN(CCCNc2ncnc3ccc(-c4cccnc4-c4cc(Cl)ccc4F)cc23)CC1` [compound 1046], which IC50 is on record?
Answer: 1.63 µM

Question: For `Fc1cc(F)c(F)c(-c2ncccc2-c2ccn3nccc3n2)c1` [compound 1052, 6-(2-(4-Fluoro-2,5-dimethylphenyl)pyridin-3-yl)-[,2,4]triazolo[1,5-a]pyridine], which IC50 is on record?
Answer: 3.61 µM

Question: With `Fc1cc(-c2ncccc2-c2ccn3nccc3n2)c(F)c(F)c1F` [compound 1053] as the molecule, how does the IC50 read?
Answer: 0.368 µM

Question: `Fc1cc(-c2ncccc2-c2ccc3ncsc3c2)c(F)c(F)c1F` [compound 1054] was tested. Which IC50 did it give?
Answer: 0.737 µM

Question: How did the IC50 turn out when `Fc1cc(F)c(F)c(-c2ncccc2-c2ccc3ncsc3c2)c1` [compound 1055] was run?
Answer: 0.129 µM

Question: For `Cc1ccc(Cl)cc1-c1ncccc1-c1ccc2ncsc2c1` [compound 1057], which IC50 is on record?
Answer: 0.371 µM

Question: How did the IC50 turn out when `Cc1cc(-c2ncccc2-c2ccc3ncsc3c2)c(C)cc1F` [compound 1061] was run?
Answer: 0.473 µM

Question: `Cc1cc(-c2ncccc2-c2ccc3ncc(C#N)n3c2)c(C)cc1F` [compound 1063] was tested. Which IC50 did it give?
Answer: 4.45 µM

Question: How did the IC50 turn out when `Cc1cc(-c2ncccc2-c2ccc3ncnn3c2)c(C)cc1F` [compound 1064] was run?
Answer: 0.804 µM

Question: With `c1cnc(-c2ccc3occc3c2)c(-c2ccc3ncsc3c2)c1` [compound 1073] as the molecule, how does the IC50 read?
Answer: 0.48 µM

Question: Which IC50 does the source give for `c1cnc(-c2cccc3c2OCC3)c(-c2ccc3ncsc3c2)c1` [compound 1076] here?
Answer: 9.67 µM

Question: With `Nc1ncnc2ccc(-c3cccnc3-c3ccc4occc4c3)cc12` [compound 1083] as the molecule, how does the IC50 read?
Answer: 0.309 µM
